| Structure (SMILES) | melting point |
| --- | --- |
| COc1ccc(Cn2cnc3c(-c4ccco4)nc(C#N)nc32)cc1 [Example 87, 6-(2-Furyl)-9-(4-methoxyphenylmethyl)-9H-purine-2-carbonitrile] | 205 to 207 °C |
| C=C(OCC)c1nc(-c2ccco2)c2ncn(Cc3ccc(OC)cc3)c2n1 [Example 83, 2-(1-Ethoxyvinyl)-6-(2-furyl)-9-(4-methoxyphenylmethyl)-9H-purine] | 144 to 145 °C |
| COc1ccc(Cn2cnc3c(-c4ccco4)nc(C(C)=O)nc32)cc1 [Example 86, 2-Acetyl-6-(2-furyl)-9-(4-methoxyphenylmethyl)-9H-purine] | 166 to 167 °C |
| COc1ccc(Cn2c(Br)nc3c(-c4ccco4)ncnc32)cc1 [Example 101, 8-Bromo-6-(2-furyl)-9-(4-methoxyphenylmethyl)-9H-purine] | 150 to 151 °C |
| C#Cc1nc(-c2ccco2)c2ncn(Cc3ccc(OC)cc3)c2n1 [Example 89, 2-Ethynyl-6-(2-furyl)-9-(4-methoxyphenylmethyl)-9H-purine] | 155 °C |
| COc1ccc(Cn2cnc3c(-c4ccco4)nc(OC(C)C)nc32)cc1 | 145 to 146 °C |
| COc1ccc(Cn2cnc3c(-c4ccco4)nc(I)nc32)cc1 | 145 to 148 °C |
| CCCOc1nc(-c2ccco2)c2ncn(Cc3ccc(OC)cc3)c2n1 | 119 °C |
| CCOc1nc(-c2ccco2)c2ncn(Cc3ccc(OC)cc3)c2n1 | 137 to 138 °C |
| FC(F)(F)Oc1cccc(Cn2cnc3c(-c4ccco4)ncnc32)c1 [Example 38, 6-(2-Furyl)-9-(3-trifluoromethoxyphenylmethyl)-9H-purine] | 133 to 135 °C |
| COc1ccc(Cn2cnc3c(-c4ccco4)nc(OC)nc32)cc1 [Example 74, 6-(2-Furyl)-2-methoxy-9-(4-methoxyphenylmethyl)-9H-purine] | 167 to 169 °C |
| CCSc1nc(-c2ccco2)c2ncn(Cc3ccc(OC)cc3)c2n1 | 116 to 117 °C |
| COc1ccc(Cn2cnc3c(-c4ccco4)nc(C4CC4)nc32)cc1 [Example 80, 2-Cyclopropyl-6-(2-furyl)-9-(4-methoxyphenylmethyl)-9H-purine] | 115 to 116 °C |
| COc1ccc(Cn2c(Cl)nc3c(-c4ccc(Cl)o4)ncnc32)cc1 | 166 to 168 °C |
| COc1ccc(Cn2c(Cl)nc3c(-c4ccco4)ncnc32)cc1 [Example 99, 8-Chloro-6-(2-furyl)-9-(4-methoxyphenylmethyl)-9H-purine] | 156 to 157 °C |
| COc1ccc(Cn2c(OC)nc3c(-c4ccco4)ncnc32)cc1 [Example 104, 6-(2-Furyl)-8-methoxy-9-(4-methoxyphenylmethyl)-9H-purine] | 143 to 144 °C |
| FC(F)(F)c1ccc(Cn2cnc3c(-c4ccco4)ncnc32)cc1 [Example 30, 6-(2-Furyl)-9-(4-trifluoromethylphenylmethyl)-9H-purine] | 159 to 161 °C |
| FC(F)(F)Oc1ccc(Cn2cnc3c(-c4ccco4)ncnc32)cc1 [Example 37, 6-(2-Furyl)-9-(4-trifluoromethoxyphenylmethyl)-9H-purine] | 146 to 147 °C |
| COc1ccc(Cn2cnc3c(-c4ccco4)nc(N(C(C)=O)C(C)=O)nc32)cc1 | 187 to 189 °C |
| COc1ccc(Cn2cnc3c(-c4ccco4)nc(N)nc32)cc1 [Example 61, 2-Amino-6-(2-furyl)-9-(4-methoxyphenylmethyl)-9H-purine] | 235 to 237 °C (dec.) |
| COc1ccc(Cn2cnc3c(-c4ccco4)nc(F)nc32)cc1 [Example 57, 2-Fluoro-6-(2-furyl)-9-(4-methoxyphenylmethyl)-9H-purine] | 210 to 215 °C |

| Structure (SMILES) | melting point |
| --- | --- |
| CNc1nc(-c2ccco2)c2ncn(Cc3ccc(OC)cc3)c2n1 | 144 to 145 °C |
| COc1ccc(Cn2cnc3c(-c4ccco4)nc(OCc4ccccc4)nc32)cc1 | 122 °C |
| COc1ccc(CNc2nc(-c3ccco3)c3ncn(Cc4ccc(OC)cc4)c3n2)cc1 [Example 65, 6-(2-Furyl)-2-(4-methoxyphenylmethylamino)-9-(4-methoxyphenylmethyl)-9H-purine] | 153 to 154 °C |
| COc1ccc(Cn2cnc3c(-c4ccco4)nc(NC(C)=O)nc32)cc1 | 167 to 168 °C |
| COc1ccc(Cn2cnc3c(-c4ccco4)nc(C)nc32)cc1 [Example 76, 6-(2-Furyl)-9-(4-methoxyphenylmethyl)-2-methyl-9H-purine] | 127 to 130 °C |
| COc1ccc(Cn2cnc3c(-c4ccco4)nc(N(C)C)nc32)cc1 | 163 to 164 °C |
| COc1cc(Cn2cnc3c(-c4ccco4)ncnc32)cc(OC)c1OC [Example 36, 6-(2-Furyl)-9-(3,4,5-trimethoxyphenylmethyl)-9H-purine] | 195 to 196 °C |
| COc1ccc(Cn2c(-c3ccco3)nc3c(-c4ccco4)ncnc32)cc1 [Example 103, 6,8-Di(2-furyl)-9-(4-methoxyphenylmethyl)-9H-purine] | 134 to 136 °C |
| CCc1nc(-c2ccco2)c2ncn(Cc3ccc(OC)cc3)c2n1 [Example 77, 2-Ethyl-6-(2-furyl)-9-(4-methoxyphenylmethyl)-9H-purine] | 119 to 120 °C |
| CCCCc1nc(-c2ccco2)c2ncn(Cc3ccc(OC)cc3)c2n1 [Example 79, 2-n-Butyl-6-(2-furyl)-9-(4-methoxyphenylmethyl)-9H-purine] | 103 °C |
| Nc1ccc(Cn2cnc3c(-c4ccco4)ncnc32)cc1 [Example 45, 9-(4-Aminophenylmethyl)-6-(2-furyl)-9H-purine] | 195 to 197 °C |
| COc1ccc(Cn2cnc3c(-c4ccco4)nc(-c4ccccc4)nc32)cc1 [Example 84, 6-(2-Furyl)-9-(4-methoxyphenylmethyl)-2-phenyl-9H-purine] | 140 to 142 °C |
| C=Cc1nc(-c2ccco2)c2ncn(Cc3ccc(OC)cc3)c2n1 [Example 82, 2-Ethenyl-6-(2-furyl)-9-(4-methoxyphenylmethyl)-9H-purine] | 94 to 95 °C |
| CC#Cc1nc(-c2ccco2)c2ncn(Cc3ccc(OC)cc3)c2n1 | 158 to 160 °C |
| COc1ccc(Cn2cnc3c(-c4ccco4)nc(C(C)C)nc32)cc1 [Example 78, 6-(2-Furyl)-9-(4-methoxyphenylmethyl)-2-(1-methylethyl)-9H-purine] | 123 °C |
| Oc1ccc(Cn2cnc3c(-c4ccco4)ncnc32)cc1 [Example 41, 6-(2-Furyl)-9-(4-hydroxyphenylmethyl)-9H-purine] | 231 to 233 °C |
| COc1ccc(Cn2cnc3c(-c4ccco4)nc(S(C)(=O)=O)nc32)cc1 [Example 70, 6-(2-Furyl)-9-(4-methoxyphenylmethyl)-2-methylsulfonyl-9H-purine] | 184 to 185 °C |
| COc1ccc(Cn2c(O)nc3c(-c4ccco4)ncnc32)cc1 [Example 105, 6-(2-Furyl)-8-hydroxy-9-(4-methoxyphenylmethyl)-9H-purine] | 249 to 251 °C |
| CCCCOc1nc(-c2ccco2)c2ncn(Cc3ccc(OC)cc3)c2n1 | 113 °C |
| COc1ccc(Cn2cnc3c(-c4ccco4)nc(C(F)(F)F)nc32)cc1 [Example 94, 6-(2-Furyl)-9-(4-methoxyphenylmethyl)-2-trifluoromethyl-9H-purine] | 149 to 150 °C |

— US20070203159A1, “Purine compounds” (priority 2006, published 2007)
